According to PMC8371902, “Phase 1 study of M2698, a p70S6K/AKT dual inhibitor, in patients with advanced cancer” (Journal of Hematology & Oncology, 2021):
Like-named read-outs stand apart in the source and are kept apart here.

System: patients with advanced metastatic cancer
Description: In this phase 1 study, dose escalation was followed by expansion cohorts of once-daily, oral M2698 in continuous 21-day cycles. Primary objectives were to determine the maximum tolerated dose (MTD), dose-limiting toxicities (DLTs), and recommended phase 2 dose (RP2D). Secondary objectives were to assess safety and tolerability, pharmacokinetics (PK, including food effect) and antitumor activity. Pharmacodynamic biomarker assessments were exploratory. Treatment was discontinued if there was disease progression, toxicity or consent withdrawal.
In Part 1, M2698 monotherapy was investigated in a dose escalation with a food effect cohort. In Part 2, M2698 was investigated as monotherapy (expansion cohort) to further characterize safety, tolerability and pharmacokinetics, and assess antitumor activity in PAM + patients without confounding markers (exploratory).
Dose escalation analysis included all patients who experienced a DLT and those who received ≥ 80% of planned M2698 doses in cycle 1 without experiencing a DLT. Safety analysis included all patients who received ≥ 1 dose of M2698. PK analysis included all patients who received ≥ 1 dose of M2698 and had measurable plasma concentrations. Dose proportionality was tested using the power model (linear regression approach on the log -transformed scale).

NC(=O)c1cccc2c(N[C@H](CN3CCC3)c3ccc(Cl)c(C(F)(F)F)c3)ncnc12 [M2698]
1: M2698-related TEAE: Gamma-glutamyltransferase increased (15 mg n=3) | M2698-related TEAE: Investigations (15 mg n=3) | M2698-related TEAE: Subjects with at least one event (15 mg n=3) | M2698-related TEAE: Diarrhoea (30 mg n=3) | M2698-related TEAE: Eye disorders (30 mg n=3) | M2698-related TEAE: Gastrointestinal disorders (30 mg n=3)
0: M2698-related TEAE: Abnormal dreams (15 mg n=3) | M2698-related TEAE: Affect lability (15 mg n=3) | M2698-related TEAE: Alanine aminotransferase increased (15 mg n=3) | M2698-related TEAE: Amylase increased (15 mg n=3) | M2698-related TEAE: Anaemia (15 mg n=3) | M2698-related TEAE: Angina pectoris (15 mg n=3) | M2698-related TEAE: Anxiety (15 mg n=3) | M2698-related TEAE: Aphasia (15 mg n=3) | M2698-related TEAE: Ataxia (15 mg n=3) | M2698-related TEAE: Blood and lymphatic system disorders (15 mg n=3) | M2698-related TEAE: Blood creatine phosphokinase increased (15 mg n=3) | M2698-related TEAE: Blood creatinine increased (15 mg n=3) | M2698-related TEAE: Cardiac disorders (15 mg n=3) | M2698-related TEAE: Cognitive disorder (15 mg n=3) | M2698-related TEAE: Constipation (15 mg n=3) | M2698-related TEAE: Decreased appetite (15 mg n=3) | M2698-related TEAE: Delusion (15 mg n=3) | M2698-related TEAE: Depression (15 mg n=3) | M2698-related TEAE: Diarrhoea (15 mg n=3) | M2698-related TEAE: Diarrhoea haemorrhagic (15 mg n=3) | M2698-related TEAE: Dizziness (15 mg n=3) | M2698-related TEAE: Dry eye (15 mg n=3) | M2698-related TEAE: Dry mouth (15 mg n=3) | M2698-related TEAE: Dysgeusia (15 mg n=3) | M2698-related TEAE: Dyspepsia (15 mg n=3) | M2698-related TEAE: Dysphagia (15 mg n=3) | M2698-related TEAE: Energy increased (15 mg n=3) | M2698-related TEAE: Erythema (15 mg n=3) | M2698-related TEAE: Euphoric mood (15 mg n=3) | M2698-related TEAE: Eye disorders (15 mg n=3) | M2698-related TEAE: Fatigue (15 mg n=3) | M2698-related TEAE: Gastrointestinal disorders (15 mg n=3) | M2698-related TEAE: Gastrooesophageal reflux disease (15 mg n=3) | M2698-related TEAE: General disorders and administration site conditions (15 mg n=3) | M2698-related TEAE: Headache (15 mg n=3) | M2698-related TEAE: Hyperhidrosis (15 mg n=3) | M2698-related TEAE: Hypokalaemia (15 mg n=3) | M2698-related TEAE: Hypomagnesaemia (15 mg n=3) | M2698-related TEAE: Insomnia (15 mg n=3) | M2698-related TEAE: Lipase increased (15 mg n=3) | M2698-related TEAE: Lymphopenia (15 mg n=3) | M2698-related TEAE: Metabolism and nutrition disorders (15 mg n=3) | M2698-related TEAE: Mucosal inflammation (15 mg n=3) | M2698-related TEAE: Nausea (15 mg n=3) | M2698-related TEAE: Nervous system disorders (15 mg n=3) | M2698-related TEAE: Nightmare (15 mg n=3) | M2698-related TEAE: Onychomadesis (15 mg n=3) | M2698-related TEAE: Paranoia (15 mg n=3) | M2698-related TEAE: Photosensitivity reaction (15 mg n=3) | M2698-related TEAE: Posterior reversible encephalopathy syndrome (15 mg n=3) | M2698-related TEAE: Pruritus generalised (15 mg n=3) | M2698-related TEAE: Psychiatric disorders (15 mg n=3) | M2698-related TEAE: Rash (15 mg n=3) | M2698-related TEAE: Rash maculo-papular (15 mg n=3) | M2698-related TEAE: Skin and subcutaneous tissue disorders (15 mg n=3) | M2698-related TEAE: Transaminases increased (15 mg n=3) | M2698-related TEAE: Tremor (15 mg n=3) | M2698-related TEAE: Vision blurred (15 mg n=3) | M2698-related TEAE: Vomiting (15 mg n=3) | M2698-related TEAE: White blood cell count decreased (15 mg n=3) | M2698-related TEAE: Abnormal dreams (30 mg n=3) | M2698-related TEAE: Affect lability (30 mg n=3) | M2698-related TEAE: Alanine aminotransferase increased (30 mg n=3) | M2698-related TEAE: Amylase increased (30 mg n=3) | M2698-related TEAE: Anaemia (30 mg n=3) | M2698-related TEAE: Angina pectoris (30 mg n=3) | M2698-related TEAE: Anxiety (30 mg n=3) | M2698-related TEAE: Aphasia (30 mg n=3) | M2698-related TEAE: Ataxia (30 mg n=3) | M2698-related TEAE: Blood and lymphatic system disorders (30 mg n=3) | M2698-related TEAE: Blood creatine phosphokinase increased (30 mg n=3) | M2698-related TEAE: Blood creatinine increased (30 mg n=3) | M2698-related TEAE: Cardiac disorders (30 mg n=3) | M2698-related TEAE: Cognitive disorder (30 mg n=3) | M2698-related TEAE: Constipation (30 mg n=3) | M2698-related TEAE: Decreased appetite (30 mg n=3) | M2698-related TEAE: Delusion (30 mg n=3) | M2698-related TEAE: Depression (30 mg n=3) | M2698-related TEAE: Diarrhoea haemorrhagic (30 mg n=3) | M2698-related TEAE: Dizziness (30 mg n=3) | M2698-related TEAE: Dry eye (30 mg n=3) | M2698-related TEAE: Dry mouth (30 mg n=3) | M2698-related TEAE: Dysgeusia (30 mg n=3) | M2698-related TEAE: Dyspepsia (30 mg n=3) | M2698-related TEAE: Dysphagia (30 mg n=3) | M2698-related TEAE: Energy increased (30 mg n=3) | M2698-related TEAE: Erythema (30 mg n=3) | M2698-related TEAE: Euphoric mood (30 mg n=3) | M2698-related TEAE: Fatigue (30 mg n=3) | M2698-related TEAE: Gamma-glutamyltransferase increased (30 mg n=3) | M2698-related TEAE: Gastrooesophageal reflux disease (30 mg n=3) | M2698-related TEAE: General disorders and administration site conditions (30 mg n=3) | M2698-related TEAE: Headache (30 mg n=3)
